The target in experiment [1] is T1, LaINDY (Lactobacillus acidophilus, UniProt Q5FKK5).
T1 construct: gene LBA0912
The experiment can be described thus: thermostability, SEC peak height after […] h at […] °C. It is filed as binding.

For experiment [2], the target named is T1, LaINDY. The experiment can be described thus: whole-cell radiolabelled uptake and exchange in E. coli BL21(DE3). The experiment is classed as cell-based. The following applies: 1 μM 3H-succinate, labelled compound, pH 7.5, 30 °C, 10 mM NaCl.
Experiment [3] deals with LaINDY, succinate/dicarboxylate transporter from Lactobacillus acidophilus (Lactobacillus acidophilus). As to the kind of experiment: cryo-EM structure.
Experiment [4] shares this target. As to the kind of experiment: crystal structure.
The target is the same in experiment [5]. As to the kind of experiment: SEC-MALS; Shodex KW803 column, buffer with 0.05% DDM, three angle static light scattering, refractive index and UV detectors; detergent-purified LaINDY.

Like-named read-outs stand apart in the source and are kept apart here.

The values that follow come from publication PMC7553777, “Structural basis for the reaction cycle of DASS dicarboxylate transporters” (eLife, 2020).

T1 sequence (Q5FKK5 1-488 limits assumed): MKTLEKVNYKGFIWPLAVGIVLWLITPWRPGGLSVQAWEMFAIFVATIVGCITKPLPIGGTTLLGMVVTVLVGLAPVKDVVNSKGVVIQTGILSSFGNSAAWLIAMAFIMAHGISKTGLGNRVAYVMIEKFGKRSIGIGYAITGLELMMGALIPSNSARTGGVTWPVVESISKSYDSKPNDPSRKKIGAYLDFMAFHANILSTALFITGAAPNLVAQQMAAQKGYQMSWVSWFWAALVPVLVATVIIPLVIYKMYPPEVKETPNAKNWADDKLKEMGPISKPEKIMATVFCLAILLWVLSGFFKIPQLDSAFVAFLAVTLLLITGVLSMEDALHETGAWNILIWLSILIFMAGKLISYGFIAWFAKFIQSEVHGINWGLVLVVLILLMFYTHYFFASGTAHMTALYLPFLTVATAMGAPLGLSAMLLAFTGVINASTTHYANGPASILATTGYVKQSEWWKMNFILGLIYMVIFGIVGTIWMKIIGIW

On to `O=C(O)CCC(=O)C(=O)O` [αKG], for which the “thermostability, SEC peak height after 2 h at 42 °C” value on LaINDY [1] (pH 8.0, 150 mM NaCl, 0.15% DM, 100 mM compound as printed) was “Following identification of malate and αKG as stabilizers”. Regarding `O=C(O)CC(O)C(=O)O` (racemic) [malate], the “thermostability, SEC peak height after 2 h at 42 °C” value at LaINDY [1] was “Following identification of malate and αKG as stabilizers”. Turning to `O=C(O)CCC(=O)O` [succinate], at LaINDY [2], the “whole-cell radiolabelled uptake and exchange in E. coli BL21(DE3)” value is “E. coli transformed with LaINDY accumulated radioactive succinate from an external solution”. As to “LaINDY, succinate/dicarboxylate transporter from Lactobacillus acidophilus (natural protein)”, the stoichiometry N in experiment [3], in experiment [4] and in experiment [5] was 2 in each case.
